The target of experiment [1] is T1, human cannabinoid type-2 receptors (hCB2) (Homo sapiens, UniProt P34972).
T1 construct: expressed in transfected cells; host or cells: CHO cells (CHO-hCB2), membranes or intact cells
In words: Competition receptor binding with [3H]CP-55,940, CHO-hCB2 membranes. The note with it: for displacement of [3H]CP-55,940 from hCB2Rs: single 1 μM concentration, 0.2 nM [3H]CP-55,940, CHO-hCB2. The protocol:
Membrane homogenates were prepared for competition receptor binding and [^35S]GTPγS binding studies by using pellets previously frozen of CHO-hCB1 or CHO-hCB2 cells as described in ([Franks et al., 2014]). In short, pellets were thawed on ice, combined in a 40 ml glass Dounce homogenizer and homogenized in 20 ml of cold buffer (50 mM HEPES at pH 7.4, 3 mM MgCl2, and 1 mM EGTA) using 10 strokes. Homogenates were then centrifuged at 40,000 × g for 10 min at 4°C. After discarding the supernatant, pellets were homogenized and centrifuged twice more. Final pellets were re-suspended in ice-cold 50 mM HEPES, pH 7.4, aliquoted and stored at -80°C for future use. Protein concentration was determined the same day, prior to freezing, using BCA^TM Protein Assay (Thermo Fisher Scientific, Waltham, MA, USA).
The final volume of each sample was 1 ml, containing 50 mM Tris-HCl buffer (pH 7.4), 0.05% bovine serum albumin, 5 mM MgCl2, increasing concentrations of non-radioactive competing SERM ligands, and either 100 μg of CHO-hCB1 or 50 μg of CHO-hCB2 membrane homogenates. Non-specific binding was defined by radioactivity remaining in the presence of 1 μM of the non-radioactive CB1/CB2 agonist WIN-55,212-2. Each sample condition was performed in triplicate and allowed to reach equilibrium at room temperature for 90 min. Reactions were terminated by rapid vacuum filtration through Whatman GF/B glass fiber filters (Brandel, Inc.), followed by four 4 ml washes of ice-cold filtration buffer (50 mM Tris at pH 7.4 and 0.05% BSA). Filter punches of individual samples were placed in scintillation vials containing 4 mls of ScintiverseTM BD cocktail scintillation fluid (Fisher Scientific, Pittsburg, PA, USA). Final counts were determined using liquid scintillation spectrophotometry (Tri Carb 2100 TR Liquid Scintillation Analyzer, Packard Instrument Company, Meriden, CT, USA) after overnight incubation.
(§1) Statistical analyses were conducted by utilizing GraphPad Prism v6.0g (GraphPad Software, Inc.; San Diego, CA, USA). IC50 values from competition receptor binding curves were derived by non-linear regression. Experimental IC50 values were converted to Ki values (a measure of receptor affinity) by using the Cheng–Prusoff equation ([Cheng and Prusoff, 1973]). Non-linear regression analysis of concentration-effect curves was also used to determine potency (ED50 or IC50) and efficacy (Emax or Imax) for modulation of GTPγS and adenylyl cyclase activity, respectively. All IC50, EC50, Ki, and Kb values were converted to pEC50, pIC50, pKi, and pKb values in order to permit use of parametric statistical analyses. For all experiments comparing three or more values, an one-way ANOVA was employed, followed by Dunnett’s or Tukey’s post hoc tests. For comparisons of two values, an unpaired t-test was utilized. To determine significant radioligand displacement or modulation of G-protein activity compared to basal levels, a one-sample t-test was employed.
For initial comparison of potential SERM binding to CBRs, 14 commercially available compounds from 5 structurally distinct classes (Figure 1) were subjected to a radioligand binding screen (Figure 2).

Experiment [2] concerns the target T1, human cannabinoid type-2 receptors (hCB2). The experiment can be described thus: Adenylyl cyclase assay (forskolin-stimulated cAMP), intact CHO-hCB2 cells. The format is cell-based. The note with it: for Emax: elevation of cAMP, read-out: EMAX, Intracellular [3H]cAMP; for EC50: increase of cAMP, 10 μM forskolin, read-out: EC50, Intracellular [3H]cAMP. As to the method:
(§2) Briefly, cells cultured between passages 4 and 15 were seeded into 24-well plates at a concentration of 6.5 million cells per plate and incubated overnight in a humidified incubator maintained at 37°C and 5% CO2. Growth media was removed the next day and replaced with media containing […] [^3H]adenine, 0.9g/L NaCl, and 0.5 mM isobutyl-methyl-xanthine (IBMX) for 2–3 h. Radioactive media was then removed and each well treated with 0.5 ml of varying concentrations of SERM compounds in a Krebs-Ringer-HEPES solution (10 mM HEPES, 110 mM NaCl, 25 mM Glucose, 55 mM Sucrose, 5 mM KCl, 1 mM MgCl2, 1.8 mM CaCl2, pH 7.4) containing 0.5 mM IBMX and 10 μM forskolin. Plates were then floated in a 37°C water bath for 15 min before reactions were terminated by addition of 50 μL of 2.2 N HCl to each well.
as §1, with “Experimental IC50 values were converted to Ki values (a measure of receptor affinity) by using the Cheng–Prusoff equation ([Cheng and Prusoff, 1973]).” left out
To provide a second measure of intrinsic activity, the ability of SERMs to modulate intracellular levels of cAMP in intact cells was examined (Figure 6). CBRs couple to Gi/Go-proteins, and thus cannabinoid agonists inhibit activity of the downstream intracellular effector adenylyl cyclase, reducing intracellular cAMP levels.

For experiment [3] the target is unchanged. In words: Antagonism of CP-55,940 inhibition of adenylyl cyclase, intact CHO-hCB2 cells. The note with it: for IMAX of CP-55,940 after pre-incubation with the drug / type of antagonism at hCB2Rs: CHO-hCB2 cells; for IMAX of CP-55,940 after pre-incubation with the drug: pre-incubation 30 min: OSP, NAF 10 μM, RAL, BAZ 2 μM, AM-630 1 μM; for type of antagonism at hCB2Rs: CP-55,940 inhibition of adenylyl cyclase. The experiment is classed as cell-based. The protocol: as §2
Reactions were then terminated by adding 50 μL of 2.2 N HCl to each well. [^3H]cAMP was isolated using alumina column chromatography and radioactivity quantified following addition of 10 mls of scintiverseTM BD cocktail scintillation fluid (Fisher Scientific, Pittsburg, PA, USA) by liquid scintillation spectrophotometry (Tri Carb 2100 TR Liquid Scintillation Analyzer, Packard Instrument Company, Meriden, CT, USA).
as §1, with “Experimental IC50 values were converted to Ki values (a measure of receptor affinity) by using the Cheng–Prusoff equation ([Cheng and Prusoff, 1973]).” left out
IC50 and Kb values were converted to pIC50 and pKb values (pIC50 = -Log[IC50] or pKb = -Log[Kb], respectively) to allow use of parametric statistics for comparison.

[4] abbreviates: Ki, [3H]CP-55,940 Binding CHO-hCB2, CHO-hCB2 membranes, Cheng-Prusoff from IC50.

The values below come from paper PMC5177629, “Selective Estrogen Receptor Modulators: Cannabinoid Receptor Inverse Agonists with Differential CB1 and CB2 Selectivity” (Frontiers in Pharmacology, 2016).

Like-named read-outs stand apart in the source and are kept apart here.

T1 sequence (P34972 whole entry): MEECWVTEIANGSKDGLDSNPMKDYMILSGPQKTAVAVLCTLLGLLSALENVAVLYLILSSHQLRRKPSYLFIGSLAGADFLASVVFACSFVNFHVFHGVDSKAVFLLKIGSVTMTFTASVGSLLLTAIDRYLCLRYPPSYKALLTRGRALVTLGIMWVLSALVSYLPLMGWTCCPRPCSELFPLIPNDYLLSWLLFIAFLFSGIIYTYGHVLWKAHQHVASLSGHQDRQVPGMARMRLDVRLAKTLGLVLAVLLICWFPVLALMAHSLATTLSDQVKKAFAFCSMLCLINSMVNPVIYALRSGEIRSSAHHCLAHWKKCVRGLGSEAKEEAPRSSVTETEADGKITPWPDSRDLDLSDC

In experiment [1] (setting [4]), `O=C(c1ccc(OCCN2CCCCC2)cc1)c1c(-c2ccc(O)cc2)sc2cc(O)ccc12` [RAL, raloxifene] came in with a Ki of approximately 0.2 µM. In experiment [1] (pKi, [3H]CP-55,940 Binding CHO-hCB2, CHO-hCB2 membranes, mean ± SEM), this compound had a Ki of 0.24 µM. Further, the “displacement of [3H]CP-55,940 from hCB2Rs” value in experiment [1] stood at 80%. In experiment [2], the Emax was 234 ± 21% and the EC50 stood at 0.873 µM. Besides, in experiment [3], the “IMAX of CP-55,940 after pre-incubation with the drug” value (from here on “IMAX”) is 33.0 ± 1.3% and the “type of antagonism at hCB2Rs” value is on record as “surmountable antagonists”. Besides, the Kb in experiment [3] (read-out: Kb (antagonist dissociation constant), CHO-hCB2) came out at 0.0665 µM.

Consider `OCCOc1ccc(/C(=C(/CCCl)c2ccccc2)c2ccccc2)cc1` [OSP, ospemifene], for which the affinity in experiment [1] (setting [4]), expressed as Ki, was 3.72 µM. Also, the Ki in experiment [1] (affinity for hCB2Rs (Ki), CHO-hCB2 membranes) is 1 to 4 µM. For the same compound, in experiment [2], the Emax is 279 ± 17% and the EC50 worked out at 1.44 µM. Besides, in experiment [3], the Kb was found to be 1.26 µM, the “IMAX” value came out at 31.7 ± 2.3% and the “type of antagonism at hCB2Rs” value is listed as “surmountable antagonists”.

Regarding `COc1ccc2c(c1)CCC(c1ccccc1)=C2c1ccc(OCCN2CCCC2)cc1` [NAF, nafoxidine], the Ki in experiment [1] (CHO-hCB2 membranes, read-out: affinity for hCB2Rs (Ki)) fell in the range of 1 to 4 µM. This compound returned an inhibition constant Ki in experiment [1] (setting [4]) of 1.3 µM. For the same compound, in experiment [3], the “IMAX” value worked out at 32.3 ± 2.3% and the “type of antagonism at hCB2Rs” value is “surmountable antagonists”. The Kb in experiment [3] (intact CHO-hCB2 cells, mean ± SEM, read-out: pKb, CHO-hCB2 (converted)) was 0.337 µM.

As to `Cc1c(-c2ccc(O)cc2)n(Cc2ccc(OCCN3CCCCCC3)cc2)c2ccc(O)cc12` [BAZ, bazedoxifene], in experiment [1] (pKi, [3H]CP-55,940 Binding CHO-hCB2), affinity was put at a Ki of 0.254 µM. Further, the “displacement of [3H]CP-55,940 from hCB2Rs” value in experiment [1] is 73%. Also, in experiment [2], the Emax is 352 ± 14% and the EC50 is 1.98 µM. In experiment [3], the “IMAX” value is listed as 28.8 ± 3.0^∗∗ % and the “type of antagonism at hCB2Rs” value is listed as “insurmountable antagonist”.
